Tests used:
HCV replicon = HCV replicon assay (FRET / luciferase reporter); format: cell-based, HCV (HUH-7 cells); settings: Hepatitis C virus; HCV replicon cells
From the text: FRET Assay Preparation. To perform the HCV FRET screening assay, 96-well cell culture plates were used. The FRET peptide (Anaspec, Inc.) (Taliani et al., Anal. Biochem. 1996, 240, 60-67) contains a fluorescence donor, EDANS, near one end of the peptide and an acceptor, DABCYL, near the other end. The fluorescence of the peptide is quenched by […] resonance energy transfer (RET) between the donor and the acceptor, but as the NS3 protease cleaves the peptide the products are released from RET quenching and the fluorescence of the donor becomes apparent. The assay reagent was made as follows: 5× cell Luciferase cell culture lysis reagent from Promega (#E153A) diluted to 1× with dH2O, NaCl added to 150 mM final, the FRET peptide diluted to 20 μM final from a 2 mM stock.
To prepare plates, HCV replicon cells, with or without a Renilla luciferase reporter gene, were trypsinized and placed into each well of a 96-well plate with titrated test compounds added in columns 3 through 12; columns 1 and 2 contained a control compound (HCV protease inhibitor), and the bottom row contained cells without compound. The plates were then placed in a CO2 incubator at 37° C.
Assays. Subsequent to addition of the test compounds described above (FRET Assay Preparation), at various times the plate was removed and Alamar blue solution (Trek Diagnostics, #00-100) was added per well as a measure of cellular toxicity. After reading in a Cytoflour 4000 instrument (PE Biosystems), plates were rinsed with PBS and then used for FRET assay by the addition of 30 ul of the FRET peptide assay reagent described above (FRET Assay Preparation) per well. The plate was then placed into the Cytoflour 4000 instrument which had been set to 340 excite/490 emission, automatic mode for 20 cycles and the plate read in a kinetic mode. Typically, the signal to noise using an endpoint analysis after the reads was at least three-fold. Alternatively, after Alamar blue reading, plates were rinsed with PBS, 50 ul of DMEM (high glucose) without phenol red was added and plates were then used for luciferase assay using the Promega Dual-Glo Luciferase Assay System.
Compound analysis was determined by quantification of the relative HCV replicon inhibition and the relative cytotoxicity values. To calculate cytoxicity values, the average Alamar Blue fluorescence signals from the control wells were set as 100% non-toxic. The individual signals in each of the compound test wells were then divided by the average control signal and multiplied by 100% to determine […]. To calculate the HCV replicon inhibition values, an average background value was obtained from the two wells containing the highest amount of HCV protease inhibitor at the end of the assay period. These numbers were similar to those obtained from naïve Huh-7 cells.
The background numbers were then subtracted from the average signal obtained from the control wells and this number was used as 100% activity. The individual signals in each of the compound test wells were then divided by the averaged control values after background subtraction and multiplied by 100% to determine percent activity. EC50 values for a protease inhibitor titration were calculated as the concentration which caused a 50% reduction in FRET or luciferase activity. The two numbers generated for the compound plate, percent cytoxicity and percent activity were used to determine compounds of interest for further analysis.
The HCV replicon luciferase assay was developed to monitor the inhibitory effects of compounds described in the disclosure on HCV viral replication. Utilization of a replicon luciferase reporter assay was first described by Krieger et al (Krieger N, Lohmann V, and Bartenschlager R, J. Virol. 75(10):4614-4624 (2001)). HUH-7 cells, constitutively expressing the HCV replicon, were grown in Dulbecco's Modified Eagle Media (DMEM) (Gibco-BRL) containing 10% Fetal calf serum (FCS) (Sigma) and 1 mg/ml G418 (Gibco-BRL). […]

HCV NS5B = biological target: T1, HCV NS5B (Hepatitis C virus genotype 1b, UniProt Q9WMX2); assay: HCV NS5B RdRp enzyme assay; format: biochemical; settings: HCV NS5B RdRp genotype 1b; standard or modified assay not specified
T1 construct: The protein was expressed with an 18 amino acid C-terminal truncation to enhance the solubility; made in house; host or cells: E. coli BL21(DE3)
T1 sequence (Q9WMX2 2420-2992): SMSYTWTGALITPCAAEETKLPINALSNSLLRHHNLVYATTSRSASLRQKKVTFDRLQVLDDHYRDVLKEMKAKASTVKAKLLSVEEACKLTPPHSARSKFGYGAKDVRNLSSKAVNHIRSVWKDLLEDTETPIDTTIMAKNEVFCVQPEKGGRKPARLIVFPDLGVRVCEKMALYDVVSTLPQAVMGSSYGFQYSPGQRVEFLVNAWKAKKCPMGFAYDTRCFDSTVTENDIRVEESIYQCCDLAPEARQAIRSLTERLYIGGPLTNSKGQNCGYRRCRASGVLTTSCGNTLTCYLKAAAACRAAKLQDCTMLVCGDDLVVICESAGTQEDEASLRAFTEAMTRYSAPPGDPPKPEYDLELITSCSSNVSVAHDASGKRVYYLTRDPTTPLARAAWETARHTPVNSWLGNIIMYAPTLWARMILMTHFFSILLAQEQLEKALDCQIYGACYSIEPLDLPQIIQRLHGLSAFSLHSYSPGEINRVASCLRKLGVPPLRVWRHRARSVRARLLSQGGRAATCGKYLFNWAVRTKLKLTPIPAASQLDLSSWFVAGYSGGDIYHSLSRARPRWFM
Method: HCV NS5B RdRp cloning, expression, and purification. The cDNA encoding the NS5B protein of HCV, genotype 1b, was cloned into the pET21a expression vector. The protein was expressed with an 18 amino acid C-terminal truncation to enhance the solubility. The E. coli competent cell line BL21(DE3) was used for expression of the protein. Cultures were grown at 37° C. for ˜4 hours until the cultures reached an optical density of 2.0 at 600 nm. The cultures were cooled to 20° C. and induced with 1 mM IPTG. Fresh ampicillin was added to a final concentration of 50 μg/ml and the cells were grown overnight at 20° C.
Cell pellets (3 L) were lysed for purification to yield 15-24 mgs of purified NS5B. The lysis buffer consisted of 20 mM Tris-HCl, pH 7.4, 500 mM NaCl, 0.5% triton X-100, 1 mM DTT, 1 mM EDTA, 20% glycerol, 0.5 mg/ml lysozyme, 10 mM MgCl2, 15 ug/ml deoxyribonuclease I, and Complete TM protease inhibitor tablets (Roche). After addition of the lysis buffer, frozen cell pellets were resuspended using a tissue homogenizer. To reduce the viscosity of the sample, aliquots of the lysate were sonicated on ice using a microtip attached to a Branson sonicator. The sonicated lysate was centrifuged at 100,000×g for 1 hr at 4° C. and filtered through a 0.2 μm filter unit (Corning).
The protein was purified using three sequential chromatography steps: Heparin sepharose CL-6B, polyU sepharose 4B, and Hitrap SP sepharose (Pharmacia). The chromatography buffers were identical to the lysis buffer but contained no lysozyme, deoxyribonuclease I, MgCl2 or protease inhibitor and the NaCl concentration of the buffer was adjusted according to the requirements for charging the protein onto the column. Each column was eluted with a NaCl gradient which varied in length from 5-50 column volumes depending on the column type. After the final chromatography step, the resulting purity of the enzyme is >90% based on SDS-PAGE analysis. The enzyme was aliquoted and stored at −80° C.
Standard HCV NS5B RdRp enzyme assay. HCV RdRp genotype 1b assays were run in a final volume of 60 μl in 96 well plates (Costar 3912). The assay buffer is composed of 20 mM Hepes, pH 7.5, 2.5 mM KCl, 2.5 mM MgCl2, 1 mM DTT, 1.6 U RNAse inhibitor (Promega N2515), 0.1 mg/ml BSA (Promega R3961), and 2% glycerol. All compounds were serially diluted (3-fold) in DMSO and diluted further in water such that the final concentration of DMSO in the assay was 2%. HCV RdRp genotype 1b enzyme was used at a final concentration of 28 nM. A polyA template was used at 6 nM, and a biotinylated oligo-dT12 primer was used at 180 nM final concentration. Template was obtained commercially (Amersham 27-4110). Biotinylated primer was prepared by Sigma Genosys. 3H-UTP was used at 0.6 μCi (0.29 μM total UTP). Reactions were initiated by the addition of enzyme, incubated at 30° C. for 60 min, and stopped by adding 25 μl of 50 mM EDTA containing SPA beads (4 μg/μl, Amersham RPNQ 0007). Plates were read on a Packard Top Count NXT after >1 hr incubation at room temperature.
Modified HCV NS5B RdRp enzyme assay. A modified enzyme assay was performed essentially as described for the standard enzyme assay except for the following: The biotinylated oligo dT12 primer was precaptured on streptavidin-coated SPA beads by mixing primer and beads in assay buffer and incubating at room temperature for one hour. Unbound primer was removed after centrifugation. The primer-bound beads were resuspended in 20 mM Hepes buffer, pH 7.5 and used in the assay at final concentrations of 20 nM primer and 0.67 μg/μl beads. Order of addition in the assay: enzyme (14 nM) was added to diluted compound followed by the addition of a mixture of template (0.2 nM), 3H-UTP (0.6 μCi, 0.29 μM), and primer-bound beads, to initiate the reaction; concentrations given are final. Reactions were allowed to proceed for 4 hours at 30° C.
IC50 values for compounds were determined using seven different [I]. […]

| SMILES | EC50 (HCV replicon) | IC50 (HCV NS5B) |
| --- | --- | --- |
| CNC(=O)c1c(-c2ccc(F)cc2)oc2ccc(-c3cc(C(=O)NC4(c5ccc6[nH]ccc6n5)CC4)ccc3C)c(F)c12 | 7 nM | 20 nM |
| CNC(=O)c1c(-c2ccc(F)cc2)oc2ccc(-c3cc(C(=O)NC4(c5nccc6[nH]ccc56)CC4)ccc3C)c(F)c12 | 60 nM |  |
| CNC(=O)c1c(-c2ccc(F)cc2)oc2ccc(-c3cc(C(=O)NC4(c5ccc6cccnc6n5)CC4)ccc3C)cc12 | 40 nM | 3 nM |
| CNC(=O)c1c(-c2ccc(F)cc2)oc2ccc(-c3cc(C(=O)NC4(c5ccc6ccncc6n5)CC4)ccc3C)cc12 | 3 nM | 5 nM |
| CNC(=O)c1c(-c2ccc(F)cc2)oc2ccc(-c3cc(C(=O)NC4(c5ccc6ccncc6n5)CC4)ccc3C)c(F)c12 | 6 nM | 20 nM |
| CNC(=O)c1c(-c2ccc(F)cc2)oc2ccc(-c3cc(C(=O)NC4(c5ccc6cnccc6n5)CC4)ccc3C)cc12 | 2 nM | 8 nM |
| CNC(=O)c1c(-c2ccc(F)cc2)oc2ccc(-c3cc(C(=O)NC4(c5ccc6ccncc6n5)CC4)cc(F)c3C)c(F)c12 | 9 nM | 10 nM |
| CNC(=O)c1c(-c2ccc(F)cc2)oc2ccc(-c3cc(C(=O)NC4(c5ccc6cccnc6n5)CC4)cc(F)c3C)c(F)c12 | 70 nM | 10 nM |
| CNC(=O)c1c(-c2ccc(F)cc2)oc2ccc(-c3cc(C(=O)NC4(c5ccc6cnccc6n5)CC4)cc(F)c3C)c(F)c12 | 6 nM | 7 nM |
| CNC(=O)c1c(-c2ccc(F)cc2)oc2ccc(-c3cc(C(=O)NC4(c5ccc6ncccc6n5)CC4)ccc3C)c(F)c12 | 30 nM | 10 nM |
| CNC(=O)c1c(-c2ccc(F)cc2)oc2ccc(-c3cc(C(=O)NC4(c5ccc6ncccc6n5)CC4)ccc3C)cc12 | 30 nM | 10 nM |
| CNC(=O)c1c(-c2ccc(F)cc2)oc2ccc(-c3cc(C(=O)NC4(c5ccc6ccncc6n5)CC4)c(OC)cc3OCC(N)=O)cc12 | 4 nM | 5 nM |
| CNC(=O)c1c(-c2ccc(F)cc2)oc2ccc(-c3cc(C(=O)NC4(c5ncc6cnccc6n5)CC4)ccc3C)c(F)c12 | 20 nM | 6 nM |
| CNC(=O)c1c(-c2ccc(F)cc2)oc2ccc(-c3cc(C(=O)NC4(c5nc6cnccc6o5)CC4)ccc3C)c(F)c12 | 4 nM | 20 nM |
| CNC(=O)c1c(-c2ccc(F)cc2)oc2ccc(-c3cc(C(=O)NC4(c5nc6cnccc6o5)CC4)c(OC)cc3C)c(F)c12 | 1 nM | 40 nM |
| CNC(=O)c1c(-c2ccc(F)cc2)oc2ccc(-c3cc(C(=O)NC4(c5nc6cnccc6o5)CC4)ccc3C)cc12 | 1 nM | 20 nM |
| CNC(=O)c1c(-c2ccc(F)cc2)oc2ccc(-c3cc(C(=O)NC4(c5nc6cnccc6o5)CC4)c(OC)cc3C)cc12 | 1 nM | 10 nM |
| CNC(=O)c1c(-c2ccc(F)cc2)oc2ccc(-c3cc(C(=O)N[C@@H](C)c4nc5cnccc5o4)c(OC)cc3C)c(F)c12 | 20 nM | 60 nM |
| CNC(=O)c1c(-c2ccc(F)cc2)oc2ccc(-c3cc(C(=O)N[C@H](C)c4nc5cnccc5o4)c(OC)cc3C)c(F)c12 | 10 nM | 40 nM |
| CNC(=O)c1c(-c2ccc(F)cc2)oc2ccc(-c3cc(C(=O)NC4(c5nc6ccncc6o5)CC4)c(OC)cc3C)c(F)c12 [4-fluoro-2-(4-fluorophenyl)-5-(4-methoxy-2-methyl-5-(1-(oxazolo[5,4-c]pyridin-2-yl)cyclopropylcarbamoyl)phenyl)-N-methylbenzofuran-3-carboxamide] | 4 nM | 20 nM |
| CNC(=O)c1c(-c2ccc(F)cc2)oc2ccc(-c3cc(C(=O)NC4(c5nc6cnccc6o5)CC4)cc(F)c3C)c(F)c12 [4-fluoro-5-(3-fluoro-2-methyl-5-(1-(oxazolo[4,5-c]pyridin-2-yl)cyclopropylcarbamoyl)phenyl)-2-(4-fluorophenyl)-N-methylbenzofuran-3-carboxamide] | 6 nM | 20 nM |
| CNC(=O)c1c(-c2ccc(F)cc2)oc2ccc(-c3cc(C(=O)NC4(c5nc6cnccc6o5)CC4)cc(F)c3C)cc12 [5-(3-fluoro-2-methyl-5-(1-(oxazolo[4,5-c]pyridin-2-yl)cyclopropylcarbamoyl)phenyl)-2-(4-fluorophenyl)-N-methylbenzofuran-3-carboxamide] | 3 nM | 20 nM |
| CNC(=O)c1c(-c2ccc(F)cc2)oc2ccc(-c3cc(C(=O)NC4(c5ccc6ncccc6n5)CC4)cc(F)c3C)c(F)c12 [5-(5-(1-(1,5-naphthyridin-2-yl)cyclopropylcarbamoyl)-3-fluoro-2-methylphenyl)-4-fluoro-2-(4-fluorophenyl)-N-methylbenzofuran-3-carboxamide] | 100 nM | 70 nM |
